Measurements taken from patent publication US7897732B2, “Antibodies to heparin-binding growth factor (HBGF) polypeptides” (Childrens Hospital Research Foundation, priority 1997, dated 2011).

Assays:
[1] = [3H]heparin binding of synthetic CTGF polypeptides on nitrocellulose dot-blot; conditions: 37.5 nmol polypeptide on nitrocellulose, 10 μCi/ml [3H]heparin, room temperature
From the text: Eighteen synthetic polypeptides spanning the entire 103 C-terminal residues of CTGF were synthesized and received as a cleaved PepSet™ from Chiron Mimotopes (Clayton, Victoria, Australia). All polypeptides were synthesized with acetylated N-termini and amidated C-termini except CTGF-(247-255) and CTGF-(247-260), which were synthesized with free N-terminal amines, and CTGF-(326-349) and CTGF-(339-349), which were synthesized with acid C-termini (Table 3).
All polypeptides contained one or no Cys residues; Cys^292 in CTGF(285-292) and Cys^325 in CTGF-(318-328) were replaced with Ser to prevent intra-chain disulfide bridging to Cys^287 or Cys^323 within the respective polypeptides. Heparin-binding properties were determined using an adaptation of the method of Baird et al. (Baird, A., et al. Proc. Natl. Acad. Sci. U.S.A. 85, 2324-2328(1988)). Briefly, 37.5 nmol of each polypeptide were absorbed in duplicate to nitrocellulose using a dot-blot apparatus. The blot was blocked for 30 min. with 10 mM Tris-HCl, 0.15 M NaCl, 0.1% bovine serum albunin (pH 7.4) and then incubated for 3 hr. at room temperature in this solution containing 10 μCi/ml [^3H]heparin (NEN Life Science Products). The blot was washed four times with 10 mM Tris-HCl, 0.15 M NaCl, and individual dots were mixed with scintillation fluid for counting of [^3H].

[2] = test system: bovine capillary endothelial cells (BCECs); test: BCEC DNA synthesis assay; assay type: cell-based
Procedure: (§1) Target cell specificity was studied using Balb/c 3T3 cells, bovine capillary endothelial cells (BCECs), and vascular smooth muscle cells. 3T3 cells were utilized as described above. BCECs were obtained from Dr. J. Folkman (Children's Hospital, Boston, Mass.) and were maintained in gelatinized culture flasks in Dulbecco's modified Eagle's medium containing 3 ng/ml bFGF and 10% heat-inactivated bovine calf serum. Smooth muscle cells were isolated from a 2-3-cm length of pig thoracic aorta using established procedures (Weich, H. A., et al., Growth Factors 2, 313-320 (1990)) and maintained in 10% Dulbecco's modified Eagle's medium, 10% fetal bovine serum. BCEC and smooth muscle cell DNA synthesis assays were performed in 48- or 96-well plates essentially as described (Besner, G. E., Higashiyama, S., and Kagsbrun, M. Cell Regul. 1, 811-819 (1990)). BCEC DNA synthesis assays were also performed in the presence of 100 μg/ml porcine heparin.

Balb/c 3T3 fibroblasts = test: DNA synthesis ([3H]thymidine incorporation) assay in confluent quiescent Balb/c 3T3 cells; assay type: cell-based; conditions: for [3H]Thymidine incorporation (mean ± S.D.): Balb/c 3T3 fibroblasts
Procedure: To assess the relative mitogenic capability of HBGFs with IGF-1, EGF, bFGF, and PDGF-AB, DNA synthesis assays on 3T3 cells were performed (Table 4). Biologically active fractions containing the 0.3-0.6 M NaCl eluate from the Bio-Rex column were pooled, diluted 3-fold with 20 mM Tris-HCL (pH 7.4) containing 0.1% CHAPS, passed through a 0.45-μm membrane filter, placed in a siliconized polypropylene vessel, and applied with a peristaltic pump to an EconoPac heparin column (0.7×3.6 cm; Bio-Rad) at 2 ml/min. The heparin column was then washed with 50 ml of 20 mM Tris-HCl buffer, 0.2 M NaCl, 0.1% CHAPS and developed at 1 ml/min with a 40 ml gradient of 0.1-2.0 M NaCl in 20 mM Tris-HCl, 0.1% CHAPS (pH 7.4) using a fast protein liquid chromatography (FPLC) system (Pharmacia Biotech Inc.). Fractions (1 ml) were collected into siliconized tubes during NaCl gradient elution and tested for 3T3 cell mitogenic activity. Column fractions were tested for their ability to stimulate DNA synthesis as measured by [^3H]thymidine incorporation into the DNA of confluent quiescent Balb/c 3T3 cells grown in 200 μl of Dulbecco's modified Eagle's medium, 10% bovine calf serum in 96-well culture plates as described (Kim, G. Y., et al., Biol. Reprod. 52, 561-571 (1995)). Dose-response curves to purified growth factors from ULF were established by assaying each dose in triplicate, with data computed as mean±S.D. Statistical significance of the effects of 1-100 μg/ml porcine heparin (Sigma) on growth factor activity was determined by Students' t test.

[3] = test system: Vascular smooth muscle cells; test: Smooth muscle cell DNA synthesis assay; assay type: cell-based, pig; conditions: 3 ng/ml
Procedure: as §1

Substance	[3H]Heparin bound (mean ± S.D.) [1]	other results
ACHYN [CTGF-(324-328)]	9 ± 1 cpm/μg	
CTPHRTTTLPVEFK (Ac-CTPHRTTTLPVEFK-NH2) [CTGF-(293-306)]	9 ± 1.1 cpm/μg	
EENIKKGKK [CTGF-(247-255)]	10 ± 0.3 cpm/μg	
EENIKKGKKCIRTP [CTGF-(247-260)]	836 ± 1 cpm/μg	
FKCPDGEVMKKNMMFIKT (Ac-FKCPDGEVMKKNMMFIKT-NH2) [CTGF-(305-322)]	237 ± 22 cpm/μg	
GVCTDGR (Ac-GVCTDGR-NH2) [CTGF-(285-291)]	7 ± 0.3 cpm/μg	
GVCTDGRS (Ac-GVCTDGRS-NH2) [Ser^292 CTGF-(285-292)]	8 ± 0.4 cpm/μg	
HYNCPGDNDIFESLYYRKMYGDMA (Ac-HYNCPGDNDIFESLYYRKMYGDMA-OH) [CTGF-(326-349)]	10 ± 1 cpm/μg	
IRTPKISKPIKFELSG (Ac-IRTPKISKPIKFELSG-NH2) [CTGF-(257-272)]	70 ± 13 cpm/μg	
LYYRKMYGDMA (Ac-LYYRKMYGDMA-OH) [CTGF-(339-349)]	9 ± 0.5 cpm/μg	
MFIKTCA (Ac-MFIKTCA-NH2) [CTGF-(318-324)]	475 ± 116 cpm/μg	
MFIKTCASHYN (Ac-MFIKTCASHYN-NH2) [Ser^325 CTGF-(318-328)]	601 ± 40 cpm/μg	
PDGEVMKKNMMFIKT (Ac-PDGEVMKKNMMFIKT-NH2) [CTGF-(308-322)]	71 ± 2 cpm/μg	
PGDNDIFESLY (Ac-PGDNDIFESLY-NH2) [CTGF-(330-340)]	10 ± 0.5 cpm/μg	
TPHRTTTLPVEFK (Ac-TPHRTTTLPVEFK-NH2) [CTGF-(294-306)]	11 ± 0.4 cpm/μg	
TPKISKPIKFELSGCTS (Ac-TPKISKPIKFELSGCTS-NH2) [CTGF-(259-275)]	124 ± 3 cpm/μg	
TSMKTYRAKF (Ac-TSMKTYRAKF-NH2) [CTGF-(274-283)]	388 ± 12 cpm/μg	
TSMKTYRAKFCGV (Ac-TSMKTYRAKFCGV-NH2) [CTGF-(274-286)]	1108 ± 119 cpm/μg	
aFGF: acidic fibroblast growth factor		[3H]Thymidine incorporation (mean ± S.D.) ([2]; 3 ng/ml): 603 ± 46 Cpm/well; [3H]Thymidine incorporation (mean ± S.D.) ([2]; 3 ng/ml + 100 μg/ml heparin): 2,232 ± 236 Cpm/well
basic fibroblast growth factor [bFGF]		[3H]Thymidine incorporation (mean ± S.D.) (Balb/c 3T3 fibroblasts; 10 ng/ml): 73,853 ± 3,122 Cpm/well; [3H]Thymidine incorporation (mean ± S.D.) ([2]; 3 ng/ml): 2,865 ± 276 Cpm/well; [3H]Thymidine incorporation (mean ± S.D.) ([2]; 3 ng/ml + 100 μg/ml heparin): 1,840 ± 4 Cpm/well; [3H]Thymidine incorporation (mean ± S.D.) [3]: 3,082 ± 374 Cpm/well
epidermal growth factor [EGF, reference compound]		[3H]Thymidine incorporation (mean ± S.D.) (Balb/c 3T3 fibroblasts; 30 ng/ml): 11,550 ± 101 Cpm/well; [3H]Thymidine incorporation (mean ± S.D.) [3]: 1,343 ± 378 Cpm/well
heparin [reference compound]		Effect on basal or calf serum-stimulated DNA synthesis in 3T3 cells (Balb/c 3T3 fibroblasts; 1-100 μg/ml heparin): no effect; [3H]Thymidine incorporation (mean ± S.D.) ([2]; 100 μg/ml): 240 ± 52 Cpm/well
insulin-like growth factor [IGF-1, reference compound]		[3H]Thymidine incorporation (mean ± S.D.) (Balb/c 3T3 fibroblasts; 30 ng/ml): 4,412 ± 170 Cpm/well
platelet-derived growth factor [PDGF-AB, reference compound]		[3H]Thymidine incorporation (mean ± S.D.) (Balb/c 3T3 fibroblasts; 30 ng/ml): 110,110 ± 7,077 Cpm/well
